Data on 1 compound can be found in EP0385952A2, “Use of a naphthalenmethanamino derivative as antiinflammatory agent and pharmaceutical compositions containing it” (SANDOZ AG, priority 1989, dated 1990).

Marks after values point to notes of the source that are not given here.

What all share (assay type): in vivo
Assay [1] concerns mice. As to the kind of experiment: Croton oil-induced pinnal swelling in mice (irritant contact dermatitis, 2.1.2.). Conditions: simultaneous, topical, pinnal weight after 6 hours. Here is the method:
(§1) Skin irritation with arachidonic acid or cantharidin is often used to experimentally induce inflammation in order to evaluate the anti-inflammatory activity of a compound [see e.g. Inflammation 8 (1984) 134-135; 10 (1986) 205-214]. NMRI mice (8 animals per group) receive 10 µl of a 10 % solution of arachidonic acid [J.M. Young et al., J. Invest. Derm. 82 (1986) 367-371] in acetone or, respectively, 0.08 % cantharidin [K.E. Swingle et al., Arch. Int. Pharmacodyn. Ther. 254 (1981) 168-176] in acetone applied to the medial and lateral surface of the right external ear. Treatment is performed either prophylactically 30 minutes before irritation (arachidonic acid) or, respectively, either simultaneously with the application of irritant solution or therapeutically 20 minutes after irritation (cantharidin), by a single epicutaneous application of the test compound dissolved in a mixture of N,N-dimethylacetamide, acetone and alcohol (2:2:4). The evaluation of the test group is effected by comparison with a control group of animals having received on the right ear lobe only the carrier substance or the irritant solution. The animals are killed 1.5 hours (arachidonic acid) or, respectively, 17 hours (cantharidin) after application of the irritant and efficacy in assessed by determination of the differences in auricular weight. Differences in weights (D) of right (involved) and left (uninvolved) pinnae of animals treated with test compound and arachidonic acid or cantharidin (T-group) are compared with differences in mice treated with arachidonic acid only or cantharidin only (C-group). Efficacy (%) is calculated according to the equation: [formula]
(§2) This model is similar to the above (see 2.1.1.). Skin inflammation is induced with 15 µl of 0.23 % croton oil in a mixture of dimethylacetamide, acetone and ethanol (2:4:4), or with 10 µl of 0.005 % TPA [12-O-tetradecanoylphorbol-13-acetate; Sigma] prepared in acetone with 0.5 % dimethylsulfoxide. Topical treatment is performed either simultaneously with the irritation (croton oil) or 20 minutes after the application (TPA). The test compound is prepared in DAE. Efficacy is assessed 6 hours after onset of irritation by determination of the auricular weight as described above.

Assay [2] deals with NMRI mice. As to the kind of experiment: Arachidonic acid-induced pinnal swelling in mice (irritant contact dermatitis, 2.1.1.). The note with it: prophylactic, epicutaneous, pinnal weight. Here is the method: as §1
In assay [3] the test system is NMRI mice. As to the kind of experiment: Cantharidin-induced pinnal swelling in mice (irritant contact dermatitis, 2.1.1.). Conditions: epicutaneous, pinnal weight. The protocol:
as §1

The next assay concerns guinea pigs. As to the kind of experiment: UV-erythema model (2.2.). The note with it: therapeutic, test concentration 5.0 %, topical, erythema score. The protocol:
Female guinea pigs weighing 250-300 g are used. On the day before experiment they are shorn on both flanks followed by a final dry shaving without skin irritation two hours before UV exposure. Two circular areas (10 mm diameter) on each flank are exposed 10 seconds to ultraviolet rays from […] at an intensity of 16 mW/cm² (UVA) and 500 mW/cm² (UVB). Drugs are administered topically immediately after exposure to UV light in a volume of 50 µl of 25 % ethanol and 75 %polyethylenglycol-400 to the irradiated skin areas on the right flank. Two areas on the left flank serve as vehicle control. Erythema is assessed visually 3.5 and 5.5 hours after irradiation and results expressed in scores. Changes in erythema intensity after drug administration are expressed as percentages of the scored erythema intensity in vehicle-treated areas.

Assay [4] relates to mice. As to the kind of experiment: TPA-induced pinnal swelling in mice (irritant contact dermatitis, 2.1.2.). The note with it: therapeutic, topical, pinnal weight after 6 hours. The protocol:
as §1, §2

For `CCCCOc1ccc(CC(=O)NO)cc1` [Bufexamac, 2-[p-(n-butyloxy)phenyl]-acetohydroxamic acid, reference compound], the “Efficacy (%)” value in the assay on mice [1] (test concentration 1.2 %) is given as 11%; in the assay on mice [1] (test concentration 3.6 %), 36** %; in the assay on NMRI mice [2] (test concentration 1.2 %) it was 35* %; in the assay on NMRI mice [2] (test concentration 3.6 %), 22* %; in the assay on NMRI mice [3] (simultaneous, test concentration 1.2 %), 36%; in the assay with NMRI mice [3] (simultaneous, test concentration 3.6 %), 29%. The “Efficacy (%)” value in the assay with NMRI mice [3] (therapeutic, test concentration 1.2 %) is 22%; with NMRI mice [3] (therapeutic, test concentration 3.6 %) it was 14%; in the assay on guinea pigs, 8%; with mice [4] (test concentration 1.2 %), 1%; in the assay with mice [4] (test concentration 3.6 %), 2%.
